From ChEMBL document CHEMBL1129632, “Synthesis and contractile activities of cyclic thrombin receptor-derived peptide analogues with a Phe-Leu-Leu-Arg motif: importance of the Phe/Arg relative conformation and the primary amino group for activity” (1996) come the findings set out here.

Residues, ends and D or L forms follow the SMILES beside them.

The species named for the assay is Rattus norvegicus. As to the kind of experiment: Relative biological activity in gastric contractile assay of rat (Relative activity is EC(peptide)/EC (compound 4) [EC contraction of each agonist to that of compound 4]). Type of assay: functional, Stomach.
In the case of `CC(C)C[C@H](NC(=O)[C@H](CC(C)C)NC(=O)[C@H](Cc1ccccc1)NC(=O)[C@@H](N)CO)C(=O)N[C@@H](CCCN=C(N)N)C(N)=O`, the Relative activity turned out to be 1.
The value for `CC(C)C[C@@H]1NC(=O)[C@H](Cc2ccccc2)NC(=O)CNC(=O)[C@H](CCCN=C(N)N)NC(=O)[C@H](CC(C)C)NC1=O` (HELM PEPTIDE1{F.L.L.R.G}$PEPTIDE1,PEPTIDE1,1:R1-5:R2$$$V2.0) was 390; that for `CC(C)C[C@@H]1NC(=O)[C@H](CC(C)C)NC(=O)[C@H](Cc2ccccc2)NC(=O)[C@@H](N)CCCCNC(=O)[C@H](CCCN=C(N)N)NC1=O` (HELM PEPTIDE1{K.F.L.L.R}$PEPTIDE1,PEPTIDE1,1:R3-5:R2$$$V2.0) was 2.4; that for `CC(C)C[C@@H]1NC(=O)[C@H](Cc2ccccc2)NC(=O)CCCCCNC(=O)[C@H](CCCN=C(N)N)NC(=O)[C@H](CC(C)C)NC1=O` (single isomer, unassigned) was more than 1000.
